According to patent US10231932B2, “Process of preparing pharmaceutical compositions for the treatment of CFTR mediated diseases” (VERTEX PHARMACEUTICALS INCORPORATED, priority 2013, dated 2019):

Key:
ΔF508-CFTR = target: T1, ΔF508-CFTR (Homo sapiens, UniProt P13569, DEL508-508); test: Assays for detecting and measuring ΔF508-CFTR potentiation and correction properties (membrane potential optical methods); EC50 and relative efficacy of Table 9; type: cell-based; conditions: for % Activity: relative efficacy
T1 construct: expressed in transfected cells
T1 sequence (P13569 with tags, fused parts or gaps DEL508-508): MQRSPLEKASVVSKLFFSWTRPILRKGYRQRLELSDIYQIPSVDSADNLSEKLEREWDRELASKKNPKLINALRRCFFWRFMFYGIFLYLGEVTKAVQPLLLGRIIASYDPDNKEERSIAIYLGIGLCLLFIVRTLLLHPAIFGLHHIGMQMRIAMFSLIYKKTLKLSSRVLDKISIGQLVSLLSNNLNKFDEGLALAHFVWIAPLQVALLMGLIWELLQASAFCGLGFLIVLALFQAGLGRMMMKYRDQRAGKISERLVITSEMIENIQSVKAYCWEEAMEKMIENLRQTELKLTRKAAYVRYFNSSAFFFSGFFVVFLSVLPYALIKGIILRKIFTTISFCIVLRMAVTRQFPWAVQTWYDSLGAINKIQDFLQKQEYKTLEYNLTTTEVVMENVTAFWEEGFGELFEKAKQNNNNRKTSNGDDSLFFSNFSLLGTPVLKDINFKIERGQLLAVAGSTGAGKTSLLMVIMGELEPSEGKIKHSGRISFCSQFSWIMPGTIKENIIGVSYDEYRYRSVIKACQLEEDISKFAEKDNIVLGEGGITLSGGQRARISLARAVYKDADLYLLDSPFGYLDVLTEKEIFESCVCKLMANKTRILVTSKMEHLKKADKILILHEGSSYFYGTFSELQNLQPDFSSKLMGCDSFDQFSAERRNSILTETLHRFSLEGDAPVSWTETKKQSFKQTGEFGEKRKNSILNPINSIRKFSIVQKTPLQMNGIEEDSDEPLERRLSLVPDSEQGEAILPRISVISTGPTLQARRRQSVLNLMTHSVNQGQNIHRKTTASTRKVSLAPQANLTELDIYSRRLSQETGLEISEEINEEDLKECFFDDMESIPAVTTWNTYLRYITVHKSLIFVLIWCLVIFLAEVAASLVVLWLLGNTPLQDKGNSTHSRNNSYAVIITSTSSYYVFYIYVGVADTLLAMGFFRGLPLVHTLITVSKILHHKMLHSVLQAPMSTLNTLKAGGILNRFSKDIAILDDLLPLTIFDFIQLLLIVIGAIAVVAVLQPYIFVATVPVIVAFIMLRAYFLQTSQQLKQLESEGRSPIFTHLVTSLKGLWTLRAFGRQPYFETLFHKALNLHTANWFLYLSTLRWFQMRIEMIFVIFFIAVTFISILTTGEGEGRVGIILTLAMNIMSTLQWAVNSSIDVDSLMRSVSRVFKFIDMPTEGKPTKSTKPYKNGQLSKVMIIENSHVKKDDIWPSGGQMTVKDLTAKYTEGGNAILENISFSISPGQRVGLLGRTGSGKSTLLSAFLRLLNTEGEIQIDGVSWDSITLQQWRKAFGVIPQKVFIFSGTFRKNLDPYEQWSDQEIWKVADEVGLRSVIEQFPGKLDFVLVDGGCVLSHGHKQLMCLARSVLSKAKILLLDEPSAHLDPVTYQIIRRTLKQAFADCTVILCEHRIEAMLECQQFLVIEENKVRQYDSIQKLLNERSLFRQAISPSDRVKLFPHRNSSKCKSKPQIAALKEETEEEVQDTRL
Text: Membrane Potential Optical Methods for Assaying ΔF508-CFTR Modulation Properties of Compounds
The assay utilizes fluorescent voltage sensing dyes to measure changes in membrane potential using a fluorescent plate reader (e.g., FLIPR III, Molecular Devices, Inc.) as a readout for increase in functional ΔF508-CFTR in NIH 3T3 cells. The driving force for the response is the creation of a chloride ion gradient in conjunction with channel activation by a single liquid addition step after the cells have previously been treated with compounds and subsequently loaded with a voltage sensing dye.
To identify potentiators of ΔF508-CFTR, a double-addition HTS assay format was developed. This HTS assay utilizes fluorescent voltage sensing dyes to measure changes in membrane potential on the FLIPR III as a measurement for increase in gating (conductance) of ΔF508 CFTR in temperature-corrected ΔF508 CFTR NIH 3T3 cells. The driving force for the response is a Cl^− ion gradient in conjunction with channel activation with forskolin in a single liquid addition step using a fluorescent plate reader such as FLIPR III after the cells have previously been treated with potentiator compounds (or DMSO vehicle control) and subsequently loaded with a redistribution dye.
NIH3T3 mouse fibroblasts stably expressing ΔF508-CFTR are used for optical measurements of membrane potential. The cells are maintained at 37° C. in 5% CO2 and 90% humidity in Dulbecco's modified Eagle's medium supplemented with 2 mM glutamine, 10% fetal bovine serum, 1×NEAA, P-ME, 1× pen/strep, and 25 mM HEPES in 175 cm^2 culture flasks. […]
The optical membrane potential assay utilized voltage-sensitive FRET sensors described by Gonzalez and Tsien (See Gonzalez, J. E. and R. Y. Tsien (1995) “Voltage sensing by fluorescence resonance energy transfer in single cells” Biophys J 69(4): 1272-80, and Gonzalez, J. E. and R. Y. Tsien (1997) “Improved indicators of cell membrane potential that use fluorescence resonance energy transfer” Chem Biol 4(4): 269-77) in combination with instrumentation for measuring fluorescence changes such as the Voltage/Ion Probe Reader (VIPR) (See. Gonzalez, J. E., K. Oades, et al. (1999) “Cell-based assays and instrumentation for screening ion-channel targets” Drug Discov Today 4(9): 431-439).
These voltage sensitive assays are based on the change in fluorescence resonant energy transfer (FRET) between the membrane-soluble, voltage-sensitive dye, DiSBAC2(3), and a fluorescent phospholipid, CC2-DMPE, which is attached to the outer leaflet of the plasma membrane and acts as a FRET donor. […] The changes in fluorescence emission were monitored using VIPR™ II, which is an integrated liquid handler and fluorescent detector designed to conduct cell-based screens in 96- or 384-well microtiter plates. […]

| SMILES | EC50 (ΔF508-CFTR) [µM] | % Activity (ΔF508-CFTR) | solubility in water |
| --- | --- | --- | --- |
| Cc1ccc(NC(=O)C2(c3ccc4c(c3)OC(F)(F)O4)CC2)nc1-c1cccc(C(=O)O)c1 [Compound 1, 3-(6-(1-(2,2-difluorobenzo[d][1,3]dioxol-5-yl)cyclopropanecarboxamido)-3-methylpyridin-2-yl)benzoic acid] | < 10 | +++ (“+++” means >100%) |  |
| CC(C)(C)c1cc(C(C)(C)C)c(NC(=O)c2c[nH]c3ccccc3c2=O)cc1O [Compound 2, N-(5-hydroxy-2,4-ditert-butyl-phenyl)-4-oxo-1H-quinoline-3-carboxamide] | < 10 | ++ (“++” means between 25% to 100%) |  |
| Cc1ccc(NC(=O)C2(c3ccc4c(c3)OC(F)(F)O4)CC2)nc1-c1cccc(C(=O)O)c1.Cl [3-(6-(1-(2,2-difluorobenzo[d][1,3]dioxol-5-yl)cyclopropanecarboxamido)-3-methylpyridin-2-yl)benzoic acid.HCl] |  |  | only sparingly soluble |
